# Test results: PubChem BioAssay AID449756 (Broad Institute, 2010)
# Results filed as inconclusive are left out.
# Tested on: INS-1E rat beta cells, cytokine apoptosis rescue, ATP luminescence 48 h
# Experiment: beta cell apoptosis inhibitors, cytokine rescue, dose response, luminescence, retest (AID 449756)
row,SMILES,AC50
1,C#CCOCCOCCOCCNc1nc(N2CCN(C(=O)CCCCCCCCCCNC(=O)[C@H](CCCCN)n3cc(CCO)nn3)CC2)nc(N2CCN(C(=O)CCCCCCCCCCNC(=O)[C@H](CCCCN)n3cc(C[C@@H](C)CC)nn3)CC2)n1,6.27 µM
2,C#CCOCCOCCOCCNc1nc(N2CCN(C(=O)CCCCCCCCCCNC(=O)[C@H]([C@@H](C)CC)n3cc(CCCCN=C(N)N)nn3)CC2)nc(N2CCN(C(=O)CCCCCCCCCCNC(=O)[C@H](CCCCN)n3cc(C)nn3)CC2)n1,4.96 µM
3,C=C(C=O)C[C@@H]1C[C@H](O)C2OC3C[C@]4(C)OC5/C=C\CC6OC7C(CC=CCC6OC5CCCC4OC3CC2O1)OC1CC2OC3CC(=O)OC3C[C@@H](C)C[C@@]2(C)OC1C[C@@H]7C (stereo not given in full),2.17 µM
4,C#CCOCCOCCOCCNc1nc(N2CCN(C(=O)CCCCCCCCCCNC(=O)[C@H]([C@@H](C)CC)n3cc(CCCCN=C(N)N)nn3)CC2)nc(N2CCN(C(=O)CCCCCCCCCCNC(=O)[C@H](CO)n3cc(CCCCCN)nn3)CC2)n1,6.94 µM
5,C#CCOCCOCCOCCNc1nc(N2CCN(C(=O)CCCCCCCCCCNC(=O)[C@H](CCCCN)n3cc(C)nn3)CC2)nc(N2CCN(C(=O)CCCCCCCCCCNC(=O)[C@@H]([C@H](C)CC)n3cc(CCCCCN)nn3)CC2)n1,5.59 µM
6,C#CCOCCOCCOCCNc1nc(N2CCN(C(=O)CCCCCCCCCCNC(=O)[C@H]([C@@H](C)CC)n3cc(CCCCCN)nn3)CC2)nc(N2CCN(C(=O)CCCCCCCCCCNC(=O)[C@@H]([C@H](C)O)n3cc(C)nn3)CC2)n1,5.76 µM
7,C#CCOCCOCCOCCNc1nc(N2CCN(C(=O)CCCCCCCCCCNC(=O)[C@@H](CCSC)n3cc(CCO)nn3)CC2)nc(N2CCN(C(=O)CCCCCCCCCCNC(=O)[C@H]([C@@H](C)CC)n3cc(CCCCCN)nn3)CC2)n1,3.98 µM
8,C#CCOCCOCCOCCNc1nc(N2CCN(C(=O)CCCCCCCCCCNC(=O)[C@H](CCCCN)n3cc(C)nn3)CC2)nc(N2CCN(C(=O)CCCCCCCCCCNC(=O)[C@H](CCCN=C(N)N)n3cc(C[C@@H](C)CC)nn3)CC2)n1,6.66 µM
9,C#CCOCCOCCOCCNc1nc(N2CCN(C(=O)CCCCCCCCCCNC(=O)[C@H]([C@@H](C)CC)n3cc(CCCCCN)nn3)CC2)nc(N2CCN(C(=O)CCCCCCCCCCNC(=O)[C@H]([C@@H](C)CC)n3cc(CCCCN=C(N)N)nn3)CC2)n1,4.66 µM
10,C#CCOCCOCCOCCNc1nc(N2CCN(C(=O)CCCCCCCCCCNC(=O)Cn3cc(CCCCCN)nn3)CC2)nc(N2CCN(C(=O)CCCCCCCCCCNC(=O)[C@H]([C@@H](C)CC)n3cc(CCCCN=C(N)N)nn3)CC2)n1,6.89 µM
